Values of other authors as cited in patent US20130177904A1, “ARNT ISOFORM 3 AS A PREDICTOR OF AMINOFLAVONE RESPONSIVENESS IN CANCER CELLS” (UNIVERSITY OF MARYLAND, BALTIMORE, priority 2010, published 2013).

Tested on: nonspecific plasma esterases
Settings: by nonspecific plasma esterases; cited from earlier work

CS(=O)(=O)O.Cc1c(F)c(N)c2c(=O)cc(-c3ccc(NC(=O)[C@@H](N)CCCCN)c(F)c3)oc2c1F [AFP-464]
conversion to AF in plasma: rapid conversion to AF
